Results published in patent EP1568373A2, “Inducing cellular immune responses to HER2/neu using peptide and nucleic acid compositions” (priority 1999, dated 2001).
Where no end group is shown, it is not given here.

Assays:
DRB1*0301 (DR3) = DRB1*0301 (DR3) (Homo sapiens, UniProt P01903+P01911, A100K/A102G/A103R/A169T/F55Y/I96L/K41T/L162R/M171V/P40S/Q125H/Q178H/Q39Y/R42S/S66N/T106N/T262R/W38E/Y61H); assay: HLA class II binding assay, purified HLA molecules; details: Table XXX
CD8+ T-cells = assay: Primary in vitro CTL induction with peptide-pulsed DC, 51Cr release and in situ IFNγ assays; format: cell-based, human
Procedure: The colon adenocarcinoma cell lines SW403 and HT-29 were obtained from the American Type Culture Collection (ATCC) (Rockville, MD). The cell lines that were obtained from ATCC were maintained under the culture conditions recommended by the supplier. […] The colon cancer cells were treated with 100U/ml IFNγ (Genzyme) for 48 hours at 37°C before use as targets in the ^51Cr release and in situ IFNγ assays.
The monocytes were purified by plating 10 x 10^6 PBMC/well in a 6-well plate. After 2 hours at 37°C, the non-adherent cells were removed by gently shaking the plates and aspirating the supernatants. The wells were washed a total of three times with 3 ml RPMI to remove most of the non-adherent and loosely adherent cells. Three ml of complete medium containing 50 ng/ml of GM-CSF and 1,000 U/ml of IL 4 were then added to each well. […]
Induction of CTL with DC and Peptide: CD8+ T-cells were isolated by positive selection with Dynal immunomagnetic beads (Dynabeads® M-450) and the detacha-bead® reagent. […] The DC were collected and centrifuged at 1300 rpm for 5-7 minutes, washed once with PBS with 1% BSA, counted and pulsed with 40µg/ml of peptide at a cell concentration of 1-2×10^6/ml in the presence of 3µg/ml ß2- microglobulin for 4 hours at 20°C. The DC were then irradiated (4,200 rads), washed 1 time with medium and counted again. […]

Chain of DRB1*0301 (DR3) (P01903 26-254 limits assumed, other chains not shown): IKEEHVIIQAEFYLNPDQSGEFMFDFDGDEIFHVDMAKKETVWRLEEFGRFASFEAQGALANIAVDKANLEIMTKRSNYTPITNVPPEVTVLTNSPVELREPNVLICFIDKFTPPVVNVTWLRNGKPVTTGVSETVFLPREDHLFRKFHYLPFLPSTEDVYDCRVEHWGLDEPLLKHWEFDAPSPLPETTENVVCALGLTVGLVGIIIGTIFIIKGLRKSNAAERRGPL

Compound: SLSFLQDIQEVQGYV [Her2/neu.70]
- IC50 (DRB1*0301 (DR3)): 5.77 µM

Compound: CC(C)C[C@H](NC(=O)[C@H](CO)NC(=O)CNC(=O)[C@H](Cc1ccccc1)NC(=O)[C@@H](NC(=O)[C@@H](N)CCCCN)C(C)C)C(=O)N[C@@H](C)C(=O)N[C@@H](Cc1ccccc1)C(=O)N[C@H](C(=O)O)C(C)C [V2V9]
- recognition of wild-type peptide and of tumor targets that endogenously express HER2/neu by the induced CTLs (CD8+ T-cells; expanded positive cultures): also recognized the target tumor cells
- induction of peptide-specific CTL response (CD8+ T-cells; normal donors, peptide-pulsed targets): induced peptide-specific CTLs

Compound: CSCC[C@H](NC(=O)[C@H](CCCNC(=N)N)NC(=O)[C@H](CO)NC(=O)[C@H](Cc1ccccc1)NC(=O)[C@H](CCC(=O)O)NC(=O)[C@H](CO)NC(=O)[C@@H](NC(=O)[C@H](CC(C)C)NC(=O)[C@H](CCC(=O)O)NC(=O)[C@H](CCCNC(=N)N)NC(=O)[C@@H](N)Cc1ccccc1)C(C)C)C(=O)N[C@@H](C)C(=O)N[C@@H](CCCNC(=N)N)C(=O)N[C@@H](CC(=O)O)C(=O)N1CCC[C@H]1C(=O)O [Her2/neu.969]
- IC50 (DRB1*0301 (DR3)): 4.22 µM
